{"source": "patent US5082980A", "about": "(Case Western Reserve University, priority 1990, dated 1992)", "key": {"cerebral blood flow": {"tested_on": "cerebral blood flow", "settings": "areas of high flow rate; limitation of water extraction in the brain tissue; cited from earlier work"}, "[1]": {"assay": "Toxic doses / physiological effects of the non-radioactive impurities", "settings": "quantity present in product, Table I"}, "[2]": {"assay": "Sterility and pyrogen status of the injectable product", "settings": "patient-ready product"}}, "data": [{"smiles": "[15OH2]", "note": "[^15 O labeled water]", "values": [{"measurement": "cerebral blood flow measurement, deviation", "setting": "cerebral blood flow", "result": "underestimation of cerebral blood flow in areas of high flow rate"}]}, {"smiles": "OB(O)O", "note": "[boric acid]", "values": [{"measurement": "quantity in the product relative to quantities with observed physiological effects", "setting": "[1]", "result": "well below any quantity which has been observed to have any physiological effects"}]}, {"smiles": "CCCC[15OH]", "note": "[^15 O labeled butanol]", "values": [{"measurement": "sterility and pyrogen status", "setting": "[2]", "result": "sterile and pyrogen-free"}]}]}
